From PubChem BioAssay AID1963962 (Molecular Pharmacology Branch, DTP, NCI, 2024)

Test system: 967376-340-R-J2-PDC multicell spheroid viability
Experiment: Anticancer human tumor 967376-340-R-J2-PDC patient-derived colon adenocarcinoma cell line growth inhibition [PI3K]
Conditions: for IC50: curve of first compound; for viability, T/C: stronger effect = lower value
How it was run: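 Stroma-containing spheroids: tumor line, pooled-donor HUVEC, hMSC. Treatments: targeted agents with PI3K inhibitors. Dosing: clinically relevant, half-log spacing, 10 microM ceiling without known Cmax. Read-out: cell viability.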

[1] = second compound 0.0316 µM, first compound 0.000316 µM
[2] = second compound 0.0316 µM, first compound 0.001 µM
[3] = second compound 0.0316 µM, first compound 0.00316 µM
[4] = second compound 0.0316 µM, first compound 0.01 µM
[5] = second compound 0.0316 µM, first compound 0.0316 µM
[6] = second compound 0.0316 µM, first compound 0.1 µM
[7] = second compound 0.1 µM, first compound 0.000316 µM
[8] = second compound 0.1 µM, first compound 0.001 µM
[9] = second compound 0.1 µM, first compound 0.00316 µM
[10] = second compound 0.1 µM, first compound 0.01 µM
[11] = second compound 0.1 µM, first compound 0.0316 µM
[12] = second compound 0.1 µM, first compound 0.1 µM
[13] = second compound 0.316 µM, first compound 0.000316 µM
[14] = second compound 0.316 µM, first compound 0.001 µM
[15] = second compound 0.316 µM, first compound 0.00316 µM
[16] = second compound 0.316 µM, first compound 0.01 µM
[17] = second compound 0.316 µM, first compound 0.0316 µM
[18] = second compound 0.316 µM, first compound 0.1 µM
[19] = second compound 1 µM, first compound 0.000316 µM
[20] = second compound 1 µM, first compound 0.001 µM
[21] = second compound 1 µM, first compound 0.00316 µM
[22] = second compound 1 µM, first compound 0.01 µM
[23] = second compound 1 µM, first compound 0.0316 µM
[24] = second compound 1 µM, first compound 0.1 µM
[25] = second compound 3.16 µM, first compound 0.000316 µM
[26] = second compound 3.16 µM, first compound 0.001 µM
[27] = second compound 3.16 µM, first compound 0.00316 µM
[28] = second compound 3.16 µM, first compound 0.01 µM
[29] = second compound 3.16 µM, first compound 0.0316 µM
[30] = second compound 3.16 µM, first compound 0.1 µM
[31] = second compound 10 µM, first compound 0.000316 µM
[32] = second compound 10 µM, first compound 0.001 µM
[33] = second compound 10 µM, first compound 0.00316 µM
[34] = second compound 10 µM, first compound 0.01 µM
[35] = second compound 10 µM, first compound 0.0316 µM
[36] = second compound 10 µM, first compound 0.1 µM
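Note: spheroids exposed to agents for 7 days before read-out.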
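Throughout, for viability, T/C: luminescence used as surrogate of cell viability.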

Q: What does the source list for `CC(=O)c1c(C)c2cnc(Nc3ccc(N4CCNCC4)cn3)nc2n(C2CCCC2)c1=O` + Cc1nc(NC(=O)N2CCCC2C(N)=O)sc1-c1ccnc(C(C)(C)C(F)(F)F)c1?
A: IC50 (second compound 0.0316 µM): > 100 nM; IC50 (second compound 0.1 µM): > 100 nM; IC50 (second compound 0.316 µM): > 100 nM; IC50 (second compound 1 µM): > 100 nM; IC50 (second compound 3.16 µM): > 100 nM; IC50 (second compound 10 µM): 24.5 nM; viability, T/C [1]: 98.9%; viability, T/C [2]: 84.7%; viability, T/C [3]: 101%; viability, T/C [4]: 90.7%; viability, T/C [5]: 102%; viability, T/C [6]: 77.3%; viability, T/C [7]: 105%; viability, T/C [8]: 94.3%; viability, T/C [9]: 88.3%; viability, T/C [10]: 99.4%; viability, T/C [11]: 109%; viability, T/C [12]: 75.6%; viability, T/C [13]: 89%; viability, T/C [14]: 82.1%; viability, T/C [15]: 75%; viability, T/C [16]: 82.6%; viability, T/C [17]: 84.2%; viability, T/C [18]: 101%; viability, T/C [19]: 65%; viability, T/C [20]: 74.4%; viability, T/C [21]: 88.7%; viability, T/C [22]: 79.1%; viability, T/C [23]: 75.5%; viability, T/C [24]: 76.3%; viability, T/C [25]: 59.4%; viability, T/C [26]: 68.2%; viability, T/C [27]: 74.5%; viability, T/C [28]: 57.8%; viability, T/C [29]: 63.8%; viability, T/C [30]: 60.4%; viability, T/C [31]: 62.2%; viability, T/C [32]: 50.8%; viability, T/C [33]: 57.2%; viability, T/C [34]: 55.9%; viability, T/C [35]: 46.3%; viability, T/C [36]: 47.1%

Q: What does the source list for `CC(C)n1nc(-c2ccc3oc(N)nc3c2)c2c(N)ncnc21` + Cc1nc(NC(=O)N2CCCC2C(N)=O)sc1-c1ccnc(C(C)(C)C(F)(F)F)c1?
A: IC50 (second compound 0.0316 µM): > 100 nM; IC50 (second compound 0.1 µM): 91.3 nM; IC50 (second compound 0.316 µM): 70.5 nM; IC50 (second compound 1 µM): 55.1 nM; IC50 (second compound 3.16 µM): 22 nM; IC50 (second compound 10 µM): 5.87 nM; viability, T/C [1]: 90.8%; viability, T/C [2]: 108%; viability, T/C [3]: 96.5%; viability, T/C [4]: 109%; viability, T/C [5]: 70.5%; viability, T/C [6]: 53.4%; viability, T/C [7]: 84.1%; viability, T/C [8]: 69.3%; viability, T/C [9]: 88.7%; viability, T/C [10]: 73%; viability, T/C [11]: 70.8%; viability, T/C [12]: 48.2%; viability, T/C [13]: 67.5%; viability, T/C [14]: 79.3%; viability, T/C [15]: 80.4%; viability, T/C [16]: 72.3%; viability, T/C [17]: 58.7%; viability, T/C [18]: 46.2%; viability, T/C [19]: 65.4%; viability, T/C [20]: 64.5%; viability, T/C [21]: 59.3%; viability, T/C [22]: 59.7%; viability, T/C [23]: 66%; viability, T/C [24]: 36.2%; viability, T/C [25]: 54.6%; viability, T/C [26]: 58.2%; viability, T/C [27]: 62.3%; viability, T/C [28]: 53.7%; viability, T/C [29]: 46.7%; viability, T/C [30]: 32.2%; viability, T/C [31]: 47.8%; viability, T/C [32]: 54.2%; viability, T/C [33]: 51.6%; viability, T/C [34]: 48.9%; viability, T/C [35]: 41.3%; viability, T/C [36]: 34.5%

Q: `CCCS(=O)(=O)Nc1ccc(F)c(C(=O)c2c[nH]c3ncc(-c4ccc(Cl)cc4)cc23)c1F` + Cc1nc(NC(=O)N2CCCC2C(N)=O)sc1-c1ccnc(C(C)(C)C(F)(F)F)c1 was tested. Which IC50 (second compound 0.0316 µM) did it give?
A: The IC50 was 6970 nM.

Q: What about the IC50 (second compound 0.1 µM) of the same compound?
A: The IC50 was greater than 10000 nM.

Q: And the IC50 (second compound 0.316 µM)?
A: Its IC50 is 8250 nM.

Q: What about the IC50 (second compound 1 µM) of the same compound?
A: Its IC50 is 6020 nM.

Q: And the IC50 (second compound 3.16 µM)?
A: Its IC50 is greater than 10000 nM.

Q: What about the IC50 (second compound 10 µM) of the same compound?
A: The IC50 was 4470 nM.

Q: What about the viability, T/C [5] of the same compound?
A: The viability, T/C was 80.2%.

Q: And the viability, T/C [6]?
A: The viability, T/C was 82%.

Q: And the viability, T/C (second compound 0.0316 µM, first compound 0.316 µM)?
A: The viability, T/C was 101%.

Q: And the viability, T/C (second compound 0.0316 µM, first compound 1 µM)?
A: The viability, T/C was 102%.

Q: And the viability, T/C (second compound 0.0316 µM, first compound 3.16 µM)?
A: The viability, T/C was 105%.

Q: And the viability, T/C (second compound 0.0316 µM, first compound 10 µM)?
A: The viability, T/C was 29.8%.

Q: What about the viability, T/C [11] of the same compound?
A: The viability, T/C was 95.7%.

Q: And the viability, T/C [12]?
A: Its viability, T/C is 72%.

Q: And the viability, T/C (second compound 0.1 µM, first compound 0.316 µM)?
A: Its viability, T/C is 77.2%.

Q: And the viability, T/C (second compound 0.1 µM, first compound 1 µM)?
A: Its viability, T/C is 80%.

Q: What about the viability, T/C (second compound 0.1 µM, first compound 3.16 µM) of the same compound?
A: Its viability, T/C is 117%.

Q: And the viability, T/C (second compound 0.1 µM, first compound 10 µM)?
A: Its viability, T/C is 60.3%.

Q: What about the viability, T/C [17] of the same compound?
A: The viability, T/C was 63%.

Q: What about the viability, T/C [18] of the same compound?
A: The viability, T/C was 81.2%.

Q: What about the viability, T/C (second compound 0.316 µM, first compound 0.316 µM) of the same compound?
A: The viability, T/C was 68.7%.

Q: And the viability, T/C (second compound 0.316 µM, first compound 1 µM)?
A: Its viability, T/C is 91.7%.

Q: And the viability, T/C (second compound 0.316 µM, first compound 3.16 µM)?
A: Its viability, T/C is 88.4%.

Q: And the viability, T/C (second compound 0.316 µM, first compound 10 µM)?
A: Its viability, T/C is 44.3%.

Q: And the viability, T/C [23]?
A: The viability, T/C was 78.2%.

Q: And the viability, T/C [24]?
A: Its viability, T/C is 69.1%.

Q: And the viability, T/C (second compound 1 µM, first compound 0.316 µM)?
A: Its viability, T/C is 74%.

Q: And the viability, T/C (second compound 1 µM, first compound 1 µM)?
A: The viability, T/C was 74.8%.

Q: And the viability, T/C (second compound 1 µM, first compound 3.16 µM)?
A: The viability, T/C was 66.3%.

Q: What about the viability, T/C (second compound 1 µM, first compound 10 µM) of the same compound?
A: Its viability, T/C is 36.6%.

Q: And the viability, T/C [29]?
A: The viability, T/C was 50.5%.

Q: And the viability, T/C [30]?
A: The viability, T/C was 56.5%.

Q: And the viability, T/C (second compound 3.16 µM, first compound 0.316 µM)?
A: Its viability, T/C is 60.3%.

Q: What about the viability, T/C (second compound 3.16 µM, first compound 1 µM) of the same compound?
A: Its viability, T/C is 65.6%.

Q: And the viability, T/C (second compound 3.16 µM, first compound 3.16 µM)?
A: Its viability, T/C is 71.4%.

Q: And the viability, T/C (second compound 3.16 µM, first compound 10 µM)?
A: The viability, T/C was 61.4%.

Q: And the viability, T/C [35]?
A: Its viability, T/C is 59.7%.

Q: And the viability, T/C [36]?
A: The viability, T/C was 46.9%.

Q: What about the viability, T/C (second compound 10 µM, first compound 0.316 µM) of the same compound?
A: Its viability, T/C is 69.2%.

Q: What about the viability, T/C (second compound 10 µM, first compound 1 µM) of the same compound?
A: The viability, T/C was 49.6%.

Q: And the viability, T/C (second compound 10 µM, first compound 3.16 µM)?
A: Its viability, T/C is 65.1%.

Q: What about the viability, T/C (second compound 10 µM, first compound 10 µM) of the same compound?
A: Its viability, T/C is 31.1%.
